Data published in patent US8404857B2, “α-crystalline form of carbabenzpyride” (Farmak International Holding GmbH, priority 2010, dated 2013).
Read-outs that look alike come from different tables or passages of the source. Marks after values point to notes of the source that are not given here.

Experiments:
[1] = tested on: Influenza A strain California (H3N2); format: cell-based; settings: Table 9, NBL-2 cells, MOI 0.001, 24 h
[2] = tested on: Influenza A strain New Caledonia (H1N1); format: cell-based; settings: NBL-2 cells, MOI 0.01, 24 h
[3] = tested on: Influenza A strain Victoria (H3N2); assay: Virus yield reduction assay, Influenza A Victoria (H3N2); format: cell-based, Influenza A H3N2 (strain Victoria/3/75); settings: Table 10, NBL-2 cells, MOI 0.01, 24 h
blood monocytes = assay: Blood monocytes level (complete blood counts) of volunteers; format: in vivo, human; settings: throughout the study; control group decreased by V3 and V4
From the text: The results of investigating FAV00A effect of body interferon status correlate with the data collected during statistical processing of volunteers' complete blood counts. […] This fact is indicative of limitation of viral infection immunosuppressive effect on cellular immunity responses in FAV00A treatment group.

Coxsackie virus A9 = assay: Virus yield reduction assay, Coxsackie virus A9; format: cell-based; settings: HFF, MOI 0.005, 3 days
Enterovirus 71 = assay: Virus yield reduction assay, Enterovirus 71; format: cell-based; settings: HFF, MOI 0.1, 3 days
Echo virus 30 = assay: Virus yield reduction assay, Echo virus 30; format: cell-based; settings: HFF, MOI 0.01, 3 days
IFN-α = assay: Circulating IFN-α levels in blood serum of volunteers with acute respiratory infection; format: in vivo, human; settings: for IFN-α Mean value / IFN-α Median: blood serum
From the text: (§1) Increase of IFN-α levels was also observed in patients treated with Placebo, yet, this growth was less intensive than in FAV00A group (Table 22).

Adenovirus 5 = assay: Virus yield reduction assay, Adenovirus 5; format: cell-based; settings: A549 cells, MOI 0.05, 4 days
Echo virus 11 = assay: Virus yield reduction assay, Echo virus 11; format: cell-based; settings: HFF, MOI 0.005, 3 days
[4] = tested on: Human cytomegalovirus Hi91; assay: Virus yield reduction assay, Human cytomegalovirus Hi91; format: cell-based; settings: HFF, MOI 0.02, 5 days
Human metapneumovirus = assay: Virus yield reduction assay, Human metapneumovirus; format: cell-based; settings: MK2 cells, MOI 0.1, 8 days
[5] = tested on: Human cytomegalovirus AD169; assay: Virus yield reduction assay, Human cytomegalovirus AD169; format: cell-based; settings: HFF, MOI 0.02, 5 days
IFN-γ = assay: Circulating IFN-γ levels in blood serum of volunteers with acute respiratory infection; format: in vivo, human; settings: for IFN-γ Mean value / IFN-γ Median: blood serum
From the text: as §1

Adenovirus 3 = assay: Virus yield reduction assay, Adenovirus 3; format: cell-based; settings: A549 cells, MOI 0.05, 4 days
[6] = 7-th day of the drug intake (Visit V3)
[7] = Visit V3 (7-th day of drug intake)
[8] = Table 8, 400 μg with 45 minutes pre-incubation
[9] = Table 8, 400 μg without pre-incubation

CC(=O)N[C@H]1[C@H]([C@H](O)[C@H](O)CO)OC(C(=O)O)=C[C@@H]1N=C(N)N [Zanamivir, reference compound]
% virus yield relative to control ([1]; 100 ng): 0.4%
Fold reduction ([1]; 100 ng): 250
Titer (TCFD50/ml) ([1]; 100 ng): 1.18 * 10^2 TCFD50/ml
% virus yield relative to control ([2]; Table 8, 10 ng): 23%
Fold reduction ([2]; Table 8, 10 ng): 4.35
Titer (TCID50/ml) ([2]; Table 8, 10 ng): 4.85 * 10^5 TCID50/ml
% virus yield relative to control ([2]; Table 11a, 100 ng): 3%
Fold reduction ([2]; Table 11a, 100 ng): 33.33
Titer (TCID50/ml) ([2]; Table 11a, 100 ng): 7.00 * 10^4 TCID50/ml
% virus yield relative to control ([2]; Table 12b, 100 ng): 15%
Fold reduction ([2]; Table 12b, 100 ng): 6.67
Titer (TCID50/ml) ([2]; Table 12b, 100 ng): 1.42 * 10^6 TCID50/ml
% virus yield relative to control ([3]; 100 ng): 0.02%
Fold reduction ([3]; 100 ng): 5000
Titer (TCID50/ml) ([3]; 100 ng): 7.05 * 10^2 TCID50/ml

C[n+]1ccc(C(=O)NCc2ccccc2)cc1 [FAV00A, carbabenzpyride]
Change of blood monocytes level (blood monocytes): No considerable decrease
% titre reduction in comparison to virus control (Coxsackie virus A9; FAV00A 12.5 μg/ml): (45.3%)
Virus titre (Coxsackie virus A9; FAV00A 12.5 μg/ml): 1.7 × 10^4 TCID50/ml
% titre reduction in comparison to virus control (Coxsackie virus A9; FAV00A 25 μg/ml): (45.7%)
Virus titre (Coxsackie virus A9; FAV00A 25 μg/ml): 1.7 × 10^5 TCID50/ml
% titre reduction in comparison to virus control (Coxsackie virus A9; FAV00A 50 μg/ml): (65.3%)^1
Virus titre (Coxsackie virus A9; FAV00A 50 μg/ml): 1.1 × 10^5 TCID50/ml
Virus titre (Enterovirus 71; FAV00A 50 μg/ml): 5.4 × 10^3 TCID50/ml
% titre reduction in comparison to virus control (Enterovirus 71; FAV00A 100 μg/ml): (83.6%)
Virus titre (Enterovirus 71; FAV00A 100 μg/ml): 6.5 × 10^2 TCID50/ml
% titre reduction in comparison to virus control (Enterovirus 71; FAV00A 200 μg/ml): (97.6%)^1
Virus titre (Enterovirus 71; FAV00A 200 μg/ml): 9.6 × 10^1 TCID50/ml
Virus titre (Echo virus 30; FAV00A 25 μg/ml): 1.2 × 10^8 TCID50/ml
% titre reduction in comparison to virus control (Echo virus 30; FAV00A 50 μg/ml): (17.0%)
Virus titre (Echo virus 30; FAV00A 50 μg/ml): 7.9 × 10^7 TCID50/ml
% titre reduction in comparison to virus control (Echo virus 30; FAV00A 100 μg/ml): (68.3%)^1
Virus titre (Echo virus 30; FAV00A 100 μg/ml): 3.0 × 10^7 TCID50/ml
IFN-α levels versus the baseline values and Placebo group (IFN-α; [6]): Significant elevation
IFN-α Mean value (IFN-α; Visit V1 (baseline)): 22.290
IFN-α Median (IFN-α; Visit V1 (baseline)): 23.7
IFN-α Mean value (IFN-α; [7]): 37.563*
IFN-α Median (IFN-α; [7]): 37.4*
IFN-α Mean value (IFN-α; Visit V4): 30.072*
IFN-α Median (IFN-α; Visit V4): 30.55*
% virus yield relative to control ([1]; 400 μg): 76%
Fold reduction ([1]; 400 μg): 1.32
Titer (TCFD50/ml) ([1]; 400 μg): 2.25 * 10^4 TCFD50/ml
% virus yield relative to control ([1]; 800 μg): 61%
Fold reduction ([1]; 800 μg): 1.64
Titer (TCFD50/ml) ([1]; 800 μg): 1.80 * 10^4 TCFD50/ml
Virus titre (Adenovirus 5; FAV00A 12.5 μg/ml): 7.0 × 10^8 TCID50/ml
% titre reduction in comparison to virus control (Adenovirus 5; FAV00A 25 μg/ml): (43.7%)
Virus titre (Adenovirus 5; FAV00A 25 μg/ml): 3.0 × 10^8 TCID50/ml
% titre reduction in comparison to virus control (Adenovirus 5; FAV00A 50 μg/ml): (68.4%)^1
Virus titre (Adenovirus 5; FAV00A 50 μg/ml): 1.7 × 10^8 TCID50/ml
% virus yield relative to control [2, 8]: 52%
Fold reduction [2, 8]: 1.92
Titer (TCID50/ml) [2, 8]: 1.10 * 10^6 TCID50/ml
% virus yield relative to control [2, 9]: 31%
Fold reduction [2, 9]: 3.23
Titer (TCID50/ml) [2, 9]: 6.56 * 10^5 TCID50/ml
% virus yield relative to control ([2]; Table 11a, 400 μg): 32%
Fold reduction ([2]; Table 11a, 400 μg): 3.13
Titer (TCID50/ml) ([2]; Table 11a, 400 μg): 6.81 * 10^3 TCID50/ml
% virus yield relative to control ([2]; Table 12b, 800 μg): 28%
Fold reduction ([2]; Table 12b, 800 μg): 3.57
Titer (TCID50/ml) ([2]; Table 12b, 800 μg): 2.70 * 10^6 TCID50/ml
% titre reduction in comparison to virus control (Echo virus 11; FAV00A 62.5 μg/ml): (41.8%)
Virus titre (Echo virus 11; FAV00A 62.5 μg/ml): 1.8 × 10^8 TCID50/ml
% titre reduction in comparison to virus control (Echo virus 11; FAV00A 125 μg/ml): (36.4%)
Virus titre (Echo virus 11; FAV00A 125 μg/ml): 1.9 × 10^8 TCID50/ml
% titre reduction in comparison to virus control (Echo virus 11; FAV00A 250 μg/ml): (79.9%)^1
Virus titre (Echo virus 11; FAV00A 250 μg/ml): 6.1 × 10^7 TCID50/ml
% titre reduction in comparison to virus control ([4]; FAV00A 125 μg/ml): (24.9%)
% titre reduction in comparison to virus control ([4]; FAV00A 250 μg/ml): (86.0%)
Virus titre ([4]; FAV00A 250 μg/ml): 5.2 × 10^3 TCID50/ml
% titre reduction in comparison to virus control ([4]; FAV00A 500 μg/ml): (93.5%)^1
Virus titre ([4]; FAV00A 500 μg/ml): 2.4 × 10^3 TCID50/ml
% titre reduction in comparison to virus control (Human metapneumovirus; FAV00A 125 μg/ml): (88.5%)
Virus titre (Human metapneumovirus; FAV00A 125 μg/ml): 4.0 × 10^4 TCID50/ml
Virus titre (Human metapneumovirus; FAV00A 250 μg/ml): 5.4 × 10^4 TCID50/ml
% titre reduction in comparison to virus control (Human metapneumovirus; FAV00A 500 μg/ml): (95.6%)^1
Virus titre (Human metapneumovirus; FAV00A 500 μg/ml): 2.0 × 10^3 TCID50/ml
Virus titre ([5]; FAV00A 125 μg/ml): 2.2 × 10^5 TCID50/ml
Virus titre ([5]; FAV00A 250 μg/ml): 1.0 × 10^5 TCID50/ml
% titre reduction in comparison to virus control ([5]; FAV00A 500 μg/ml): (41.1%)^1
Virus titre ([5]; FAV00A 500 μg/ml): 5.3 × 10^4 TCID50/ml
% virus yield relative to control ([3]; 400 μg): 41%
Fold reduction ([3]; 400 μg): 2.44
Titer (TCID50/ml) ([3]; 400 μg): 1.20 * 10^6 TCID50/ml
% virus yield relative to control ([3]; 800 μg): 27%
Fold reduction ([3]; 800 μg): 3.70
Titer (TCID50/ml) ([3]; 800 μg): 7.75 * 10^5 TCID50/ml
IFN-γ levels versus the baseline values and Placebo group (IFN-γ; [6]): Significant elevation
IFN-γ Mean value (IFN-γ; Visit V1 (baseline)): 33.168
IFN-γ Median (IFN-γ; Visit V1 (baseline)): 33.25
IFN-γ Mean value (IFN-γ; [7]): 44.670*
IFN-γ Median (IFN-γ; [7]): 45.85*
IFN-γ Mean value (IFN-γ; Visit V4): 41.313*
IFN-γ Median (IFN-γ; Visit V4): 40.1*
Virus titre (Adenovirus 3; FAV00A 12.5 μg/ml): 7.2 × 10^7 TCID50/ml
% titre reduction in comparison to virus control (Adenovirus 3; FAV00A 25 μg/ml): (11.3%)
Virus titre (Adenovirus 3; FAV00A 25 μg/ml): 5.4 × 10^7 TCID50/ml
% titre reduction in comparison to virus control (Adenovirus 3; FAV00A 50 μg/ml): (43.5%)^1
Virus titre (Adenovirus 3; FAV00A 50 μg/ml): 3.4 × 10^7 TCID50/ml
